Measured values taken from paper PMC7305291, “Cryo-EM snapshots of mycobacterial arabinosyltransferase complex EmbB2-AcpM2” (Protein & Cell, 2020).

Legend:
[1] = molecular target: T1, EmbB2-AcpM2 complex (Msm EmbB) (Mycolicibacterium smegmatis, UniProt A0R614); assay: cryo-EM structure of the complex, […] Å; mass spectrometry of co-purified lipid; assay type: binding; details: endogenous donor substrate, bound in one protomer of the asymmetric active state
T1 construct: gene MSMEG_6389; full-length EmbB, C-terminal 10xHis tag, pMV261 vector, homologous overexpression in M. smegmatis, detergent purified then amphipol exchanged; homodimer with endogenous co-purified AcpM on each protomer; with Meromycolate extension acyl carrier protein
T1 sequence (A0R614 1-1082): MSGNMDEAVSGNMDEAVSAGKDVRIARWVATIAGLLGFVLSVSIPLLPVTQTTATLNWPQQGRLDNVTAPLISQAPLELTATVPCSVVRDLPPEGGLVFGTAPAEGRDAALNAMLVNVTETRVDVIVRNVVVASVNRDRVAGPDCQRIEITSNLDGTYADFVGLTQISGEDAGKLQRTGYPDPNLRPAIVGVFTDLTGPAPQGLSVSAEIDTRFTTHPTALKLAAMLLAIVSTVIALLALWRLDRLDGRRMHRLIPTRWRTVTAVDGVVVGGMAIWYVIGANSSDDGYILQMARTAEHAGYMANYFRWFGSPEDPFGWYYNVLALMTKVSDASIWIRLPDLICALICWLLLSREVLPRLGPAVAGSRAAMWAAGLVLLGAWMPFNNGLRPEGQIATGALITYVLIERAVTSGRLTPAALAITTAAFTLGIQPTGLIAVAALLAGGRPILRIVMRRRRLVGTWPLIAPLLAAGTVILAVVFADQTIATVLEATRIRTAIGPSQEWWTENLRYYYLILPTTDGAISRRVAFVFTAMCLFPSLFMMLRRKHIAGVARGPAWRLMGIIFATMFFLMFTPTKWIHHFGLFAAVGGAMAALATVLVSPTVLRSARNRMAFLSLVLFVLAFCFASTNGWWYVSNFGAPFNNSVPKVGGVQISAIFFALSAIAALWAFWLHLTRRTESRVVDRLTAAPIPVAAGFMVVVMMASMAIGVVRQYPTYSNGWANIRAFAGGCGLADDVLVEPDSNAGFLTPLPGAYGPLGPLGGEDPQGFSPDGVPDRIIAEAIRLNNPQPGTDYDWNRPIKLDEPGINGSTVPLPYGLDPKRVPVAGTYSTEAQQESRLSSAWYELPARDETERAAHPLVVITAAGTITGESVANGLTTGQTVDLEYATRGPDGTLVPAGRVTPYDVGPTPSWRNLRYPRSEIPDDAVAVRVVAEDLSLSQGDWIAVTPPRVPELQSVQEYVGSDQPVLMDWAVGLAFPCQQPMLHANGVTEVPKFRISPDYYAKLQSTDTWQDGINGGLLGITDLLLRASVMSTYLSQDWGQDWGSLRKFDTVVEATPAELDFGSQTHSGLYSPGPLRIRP
T1 sequence (A0R0B3 1-99 partner): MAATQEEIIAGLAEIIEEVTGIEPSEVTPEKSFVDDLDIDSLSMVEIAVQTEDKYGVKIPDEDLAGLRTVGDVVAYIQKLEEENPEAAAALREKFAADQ

[2] = molecular target: T1, EmbB2-AcpM2 complex (Msm EmbB); assay: microscale thermophoresis (MST); assay type: binding
[3] = molecular target: the molecule itself; assay: cryo-EM structure; detergent purified, amphipol exchanged EmbB with co-purified endogenous AcpM; single-particle analysis; two 3D classes refined: symmetric resting state (3.6 A) and asymmetric DPA-bound active state (3.5 A)

## CC(C)=CCC/C(C)=C/CC/C(C)=C\CC/C(C)=C\CC/C(C)=C\CC/C(C)=C\CC/C(C)=C\CC/C(C)=C\CC/C(C)=C\CC/C(C)=C\COP(=O)(O)O[C@@H]1O[C@H](CO)[C@@H](O)[C@@H]1O [decaprenyl-phosphate-arabinose]
[1]
  cryo-EM structure of the complex, 3.5 Å; mass spectrometry of co-purified lipid: The whole of the DPA fits into this part of the map

## CC[C@@H](CO)NCCN[C@@H](CC)CO [ethambutol]
[2]
  Kd: 1580 nM

B1: Mycobacterium smegmatis arabinosyltransferase EmbB (MSMEG_6389) (enzyme, UniProt Q50395 1-1082, looked up)
chain: MSGNMDEAVSGNMDEAVSAGKDVRIARWVATIAGLLGFVLSVSIPLLPVTQTTATLNWPQQGRLDNVTAPLISQAPLELTATVPCSVVRDLPPEGGLVFGTAPAEGRDAALNAMLVNVTETRVDVIVRNVVVASVNRDRVAGPDCQRIEITSNLDGTYADFVGLTQISGEDAGKLQRTGYPDPNLRPAIVGVFTDLTGPAPQGLSVSAEIDTRFTTHPTALKLAAMLLAIVSTVIALLALWRLDRLDGRRMHRLIPTRWRTVTAVDGVVVGGMAIWYVIGANSSDDGYILQMARTAEHAGYMANYFRWFGSPEDPFGWYYNVLALMTKVSDASIWIRLPDLICALICWLLLSREVLPRLGPAVAGSRAAMWAAGLVLLGAWMPFNNGLRPEGQIATGALITYVLIERAVTSGRLTPAALAITTAAFTLGIQPTGLIAVAALLAGGRPILRIVIRRRRLDGTWPLIAPLLAAGTVILAVVFADQTIATVLEATRIRTAIGPSQEWWTEKLRYYYLILPTTDGAISRRVAFVFTAMCLFPSLFMMLRRKHIAGVARGPAWRLMGIIFATMFFLMFTPTKWTHHFGLFAAVGGAMAALATVLVSPTVLRSARNRMAFLSLVLFVLAFCFASTNGWWYVSNFGAPFNNSVPKVGGVQISAIFFALSAIAALWAFWLHLTRRTESRVVDRLTAAPIPVAAGFMVVVMMASMAIGVVRQYPTYSNGWANIRAFAGGCGLADDVLVEPDSNAGFLTPLPGAYGPLGPLGGEDPQGFSPDGVPDRIIAEAIRLNNPQPGTDYDWNRPIKLDEPGINGSTVPLPYGLDPKRVPVAGTYSTEAQQESRLSSAWYELPARDETERAAHPLVVITAAGTITGESVANGLTTGQTVDLEYATRGPDGTLVPAGRVTPYDVGPTPSWRNLRYPRSEIPDDAVAVRVVAEDLSLSQGDWIAVTPPRVPELQSVQEYVGSDQPVLMDWAVGLAFPCQQPMLHANGVTEVPKFRISPDYYAKLQSTDTWQDGINGGLLGITDLLLRASVMSTYLSQDWGQDWGSLRKFDTVVEATPAELDFGSQTHSGLYSPGPLRIRP
notes: arabinosyltransferase EmbB of Mycobacterium smegmatis, locus MSMEG_6389; 69.6% identical to Mtb EmbB (Rv_3795); Seen as a homodimer by cryo-EM, with one AcpM on each protomer (EmbB2-AcpM2); also called Msm EmbB; EmbB protomer
[3]
  stoichiometry N: 2
